Measured values reported in ChEMBL document CHEMBL4229569, “Structure-Based Design of 1-Heteroaryl-1,3-propanediamine Derivatives as a Novel Series of CC-Chemokine Receptor 5 Antagonists” (J Med Chem, 2018).

Columns and labels:
[1] = target: C-C chemokine receptor type 5 (Homo sapiens, UniProt P51681); assay: Antagonist activity at CCR5 (unknown origin) expressed in HEK293 cells co-expressing Galpha16 assessed as inhibition of RANTES-induced calcium flux preincubated for 10 mins followed by RANTES addition by fluo-4AM-based fluorescence assay; format: functional, cell-based
[2] = in vitro; details: human, PBMC
Description: Therapeutic index, ratio of CC50 for human PBMC to IC50 for CCR5-dependent HIV1 KM018 infected in human PBMC

[3] = in vitro; details: human, PM1 cells
Description: Therapeutic index, ratio of CC50 for human PM1 cells to IC50 for CCR5-dependent HIV1 Ba-L infected in human PM1 cells

[4] = target: Cytochrome P450 2C9 (Homo sapiens, UniProt P11712); assay: Inhibition of CYP2C9 (unknown origin); format: ADME
[5] = target: T1, Cytochrome P450 3A4 (Homo sapiens, UniProt P08684); assay: Inhibition of CYP3A4 (unknown origin) using testosterone as substrate; format: ADME
[6] = target: T1, Cytochrome P450 3A4; assay: Inhibition of CYP3A4 (unknown origin) using midazolam as substrate; format: ADME
[7] = in vitro; details: human, HOS cells
Description: Therapeutic index, ratio of CC50 for human HOS cells to IC50 for CCR5-dependent HIV1 Ba-L infected in human HOS cells

[8] = AUC (0 to infinity) in Sprague-Dawley rat at 20 mg/kg, po by LC-MS/MS analysis; format: ADME, organism-based; parameters: dose 20 mg/kg, route oral, time infinity; details: in vivo
[9] = test system: Human immunodeficiency virus 1; assay: microbe, parasite or virus in culture; details: Human immunodeficiency virus 1, KM018, PBMC, 168 h
Description: Antiviral activity against CCR5-dependent HIV1 KM018 infected in human PBMC assessed as reduction in virus infection measured after 7 days by luciferase reporter gene assay

[10] = Cytotoxicity against human TZM-bl cells after 48 hrs by MTT assay; format: cell-based
[11] = AUC (0 to infinity) in Sprague-Dawley rat at 10 mg/kg, iv by LC-MS/MS analysis; format: ADME, organism-based; parameters: dose 10 mg/kg, time infinity, route intravenous; details: in vivo
[12] = target: Cytochrome P450 2D6 (Homo sapiens, UniProt P10635); assay: Inhibition of CYP2D6 (unknown origin); format: ADME
[13] = Cmax in Sprague-Dawley rat at 10 mg/kg, iv by LC-MS/MS analysis; format: ADME, organism-based; parameters: dose 10 mg/kg, route intravenous; details: in vivo
[14] = Oral bioavailability in Sprague-Dawley rat at 20 mg/kg by LC-MS/MS analysis; format: ADME, organism-based; details: in vivo
[15] = Tmax in Sprague-Dawley rat at 10 mg/kg, iv by LC-MS/MS analysis; format: ADME, organism-based; details: in vivo
[16] = Tmax in Sprague-Dawley rat at 20 mg/kg, po by LC-MS/MS analysis; format: ADME, organism-based; details: in vivo
[17] = in vitro; details: human, HOS cells; remark: listed apart in the source
Description: Therapeutic index, ratio of CC50 for human HOS cells to IC50 for CCR5-dependent HIV1 SF162 infected in human HOS cells

[18] = target: Voltage-gated inwardly rectifying potassium channel KCNH2 (Homo sapiens, UniProt Q12809); assay: Inhibition of human ERG expressed in CHO cells at holding potential of -80 mV after 60 secs by patch clamp assay; format: cell-based
[19] = test system: Human immunodeficiency virus 1; assay: microbe, parasite or virus in culture; details: Human immunodeficiency virus 1, SF162, TZM-bl, 48 h
Description: Antiviral activity against CCR5-dependent HIV1 SF162 infected in human TZM-bl cells assessed as reduction in virus infection measured after 48 hrs post infection by luciferase reporter gene assay

[20] = Cmax in Sprague-Dawley rat at 20 mg/kg, po by LC-MS/MS analysis; format: ADME, organism-based; parameters: dose 20 mg/kg, route oral; details: in vivo
[21] = test system: Human immunodeficiency virus 1; assay: microbe, parasite or virus in culture; details: Human immunodeficiency virus 1, SF162, PBMC, 168 h
Description: Antiviral activity against CCR5-dependent HIV1 SF162 infected in human PBMC assessed as reduction in virus infection measured after 7 days by luciferase reporter gene assay

[22] = in vitro; details: human, PBMC; remark: listed apart in the source
Description: Therapeutic index, ratio of CC50 for human PBMC to IC50 for CCR5-dependent HIV1 SF162 infected in human PBMC cells

[23] = test system: Human immunodeficiency virus 1; assay: microbe, parasite or virus in culture; details: Human immunodeficiency virus 1, Ba-L, PBMC, 168 h
Description: Antiviral activity against CCR5-dependent HIV1 Ba-L infected in human PBMC assessed as reduction in virus infection measured 7 days by luciferase reporter gene assay

[24] = test system: Human immunodeficiency virus 1; assay: microbe, parasite or virus in culture; details: Human immunodeficiency virus 1, SF162, HOS, 120 h
Description: Antiviral activity against CCR5-dependent HIV1 SF162 infected in human HOS cells assessed as reduction in virus infection measured after 5 days by luciferase reporter gene assay

[25] = target: T2, Cytochrome P450 1A2 (Homo sapiens, UniProt P05177); assay: Inhibition of CYP1A2 (unknown origin); format: ADME
T2 sequence (P05177 whole entry): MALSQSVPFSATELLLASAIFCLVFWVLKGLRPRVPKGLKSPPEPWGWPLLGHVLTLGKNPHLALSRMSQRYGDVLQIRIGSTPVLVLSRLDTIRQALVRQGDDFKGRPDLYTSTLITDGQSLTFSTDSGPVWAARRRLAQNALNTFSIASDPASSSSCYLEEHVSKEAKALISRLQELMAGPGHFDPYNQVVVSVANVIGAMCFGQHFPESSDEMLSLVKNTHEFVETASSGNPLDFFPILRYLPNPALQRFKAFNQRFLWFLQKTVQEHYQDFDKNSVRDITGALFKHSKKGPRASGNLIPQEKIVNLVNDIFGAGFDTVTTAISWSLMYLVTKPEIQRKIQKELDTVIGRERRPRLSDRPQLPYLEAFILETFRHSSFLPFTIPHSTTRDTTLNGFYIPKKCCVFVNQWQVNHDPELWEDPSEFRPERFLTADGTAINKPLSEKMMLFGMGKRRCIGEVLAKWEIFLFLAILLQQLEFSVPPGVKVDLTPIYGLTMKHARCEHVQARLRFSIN

[26] = MRT in Sprague-Dawley rat at 10 mg/kg, iv by LC-MS/MS analysis; format: ADME, organism-based; details: in vivo
[27] = Half life in Sprague-Dawley rat at 10 mg/kg, iv by LC-MS/MS analysis; format: ADME, organism-based; details: in vivo
[28] = test system: Human immunodeficiency virus 1; assay: microbe, parasite or virus in culture; details: Human immunodeficiency virus 1, Ba-L, HOS, 120 h
Description: Antiviral activity against CCR5-dependent HIV1 Ba-L infected in human HOS cells assessed as reduction in virus infection measured after 5 days by luciferase reporter gene assay

[29] = test system: Human immunodeficiency virus 1; assay: microbe, parasite or virus in culture; details: Human immunodeficiency virus 1, Ba-L, PM1, 120 h
Description: Antiviral activity against CCR5-dependent HIV1 Ba-L infected in human PM1 cells assessed as reduction in virus infection measured after 5 days by luciferase reporter gene assay

[30] = Half life in Sprague-Dawley rat at 20 mg/kg, po by LC-MS/MS analysis; format: ADME, organism-based; details: in vivo
[31] = Clearance in Sprague-Dawley rat at 10 mg/kg, iv by LC-MS/MS analysis; format: ADME, organism-based; details: in vivo
[32] = in vitro; details: human, TZM-bl cells
Description: Therapeutic index, ratio of CC50 for human TZM-bl cells to EC50 for CCR5-dependent HIV1 SF162 infected in human TZM-bl cells

[33] = MRT in Sprague-Dawley rat at 20 mg/kg, po by LC-MS/MS analysis; format: ADME, organism-based; details: in vivo
[34] = in vitro; details: human, PBMC; remark: listed apart in the source
Description: Therapeutic index, ratio of CC50 for human PBMC to IC50 for CCR5-dependent HIV1 Ba-L infected in human PBMC

[35] = target: Cytochrome P450 2C19 (Homo sapiens, UniProt P33261); assay: Inhibition of CYP2C19 (unknown origin); format: ADME
Sequence of Cytochrome P450 2C19 (P33261 whole entry): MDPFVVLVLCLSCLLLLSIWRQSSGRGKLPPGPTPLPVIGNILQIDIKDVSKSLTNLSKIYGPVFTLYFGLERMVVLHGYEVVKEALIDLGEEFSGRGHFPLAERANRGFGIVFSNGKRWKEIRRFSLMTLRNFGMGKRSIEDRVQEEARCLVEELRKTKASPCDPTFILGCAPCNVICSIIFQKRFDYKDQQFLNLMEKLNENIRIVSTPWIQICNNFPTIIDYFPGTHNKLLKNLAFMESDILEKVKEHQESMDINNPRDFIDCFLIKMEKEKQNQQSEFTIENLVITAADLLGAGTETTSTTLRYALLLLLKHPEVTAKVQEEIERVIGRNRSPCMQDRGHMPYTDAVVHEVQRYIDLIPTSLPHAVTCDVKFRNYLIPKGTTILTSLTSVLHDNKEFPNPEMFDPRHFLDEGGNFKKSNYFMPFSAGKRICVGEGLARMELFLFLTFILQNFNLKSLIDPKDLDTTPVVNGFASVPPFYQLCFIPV

Sequence of C-C chemokine receptor type 5 (P51681 whole entry): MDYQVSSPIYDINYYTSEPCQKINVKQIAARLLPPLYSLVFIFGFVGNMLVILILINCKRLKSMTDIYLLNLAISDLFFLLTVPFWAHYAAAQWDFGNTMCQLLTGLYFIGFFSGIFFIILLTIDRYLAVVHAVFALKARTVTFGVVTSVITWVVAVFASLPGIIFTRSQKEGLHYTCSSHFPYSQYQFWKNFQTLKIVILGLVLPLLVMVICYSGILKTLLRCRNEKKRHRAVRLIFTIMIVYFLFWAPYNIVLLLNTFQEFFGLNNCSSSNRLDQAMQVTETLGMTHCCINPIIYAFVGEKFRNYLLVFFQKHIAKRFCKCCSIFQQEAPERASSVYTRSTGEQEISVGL
T1 sequence (P08684 whole entry): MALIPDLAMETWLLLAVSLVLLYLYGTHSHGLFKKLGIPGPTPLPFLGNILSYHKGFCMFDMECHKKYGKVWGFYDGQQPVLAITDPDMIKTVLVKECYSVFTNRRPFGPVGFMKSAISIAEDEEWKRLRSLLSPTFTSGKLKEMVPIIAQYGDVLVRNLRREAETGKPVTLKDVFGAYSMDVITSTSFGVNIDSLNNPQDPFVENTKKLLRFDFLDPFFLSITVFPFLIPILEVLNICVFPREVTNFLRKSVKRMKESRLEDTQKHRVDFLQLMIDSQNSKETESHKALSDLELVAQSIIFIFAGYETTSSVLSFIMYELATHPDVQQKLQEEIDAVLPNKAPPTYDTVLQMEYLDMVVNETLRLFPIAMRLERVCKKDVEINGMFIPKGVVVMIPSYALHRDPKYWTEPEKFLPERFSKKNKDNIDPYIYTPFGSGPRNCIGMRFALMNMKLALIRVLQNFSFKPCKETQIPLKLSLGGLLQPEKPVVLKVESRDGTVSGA
Sequence of Cytochrome P450 2D6 (P10635 whole entry): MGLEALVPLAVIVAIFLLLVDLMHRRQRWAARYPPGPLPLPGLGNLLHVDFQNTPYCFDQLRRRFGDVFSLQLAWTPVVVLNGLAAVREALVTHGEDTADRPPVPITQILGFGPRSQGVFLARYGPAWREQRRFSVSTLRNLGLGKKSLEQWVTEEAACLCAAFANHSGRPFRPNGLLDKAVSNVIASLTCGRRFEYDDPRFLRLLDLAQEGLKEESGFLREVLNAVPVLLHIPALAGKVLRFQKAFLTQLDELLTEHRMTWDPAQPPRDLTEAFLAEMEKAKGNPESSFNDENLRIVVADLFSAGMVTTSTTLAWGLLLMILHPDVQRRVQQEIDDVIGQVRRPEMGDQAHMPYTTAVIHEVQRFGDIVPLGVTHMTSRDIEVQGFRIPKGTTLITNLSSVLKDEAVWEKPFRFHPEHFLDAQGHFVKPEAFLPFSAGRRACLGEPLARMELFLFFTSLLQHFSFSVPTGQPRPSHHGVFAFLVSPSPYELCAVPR
Sequence of Voltage-gated inwardly rectifying potassium channel KCNH2 (Q12809 whole entry): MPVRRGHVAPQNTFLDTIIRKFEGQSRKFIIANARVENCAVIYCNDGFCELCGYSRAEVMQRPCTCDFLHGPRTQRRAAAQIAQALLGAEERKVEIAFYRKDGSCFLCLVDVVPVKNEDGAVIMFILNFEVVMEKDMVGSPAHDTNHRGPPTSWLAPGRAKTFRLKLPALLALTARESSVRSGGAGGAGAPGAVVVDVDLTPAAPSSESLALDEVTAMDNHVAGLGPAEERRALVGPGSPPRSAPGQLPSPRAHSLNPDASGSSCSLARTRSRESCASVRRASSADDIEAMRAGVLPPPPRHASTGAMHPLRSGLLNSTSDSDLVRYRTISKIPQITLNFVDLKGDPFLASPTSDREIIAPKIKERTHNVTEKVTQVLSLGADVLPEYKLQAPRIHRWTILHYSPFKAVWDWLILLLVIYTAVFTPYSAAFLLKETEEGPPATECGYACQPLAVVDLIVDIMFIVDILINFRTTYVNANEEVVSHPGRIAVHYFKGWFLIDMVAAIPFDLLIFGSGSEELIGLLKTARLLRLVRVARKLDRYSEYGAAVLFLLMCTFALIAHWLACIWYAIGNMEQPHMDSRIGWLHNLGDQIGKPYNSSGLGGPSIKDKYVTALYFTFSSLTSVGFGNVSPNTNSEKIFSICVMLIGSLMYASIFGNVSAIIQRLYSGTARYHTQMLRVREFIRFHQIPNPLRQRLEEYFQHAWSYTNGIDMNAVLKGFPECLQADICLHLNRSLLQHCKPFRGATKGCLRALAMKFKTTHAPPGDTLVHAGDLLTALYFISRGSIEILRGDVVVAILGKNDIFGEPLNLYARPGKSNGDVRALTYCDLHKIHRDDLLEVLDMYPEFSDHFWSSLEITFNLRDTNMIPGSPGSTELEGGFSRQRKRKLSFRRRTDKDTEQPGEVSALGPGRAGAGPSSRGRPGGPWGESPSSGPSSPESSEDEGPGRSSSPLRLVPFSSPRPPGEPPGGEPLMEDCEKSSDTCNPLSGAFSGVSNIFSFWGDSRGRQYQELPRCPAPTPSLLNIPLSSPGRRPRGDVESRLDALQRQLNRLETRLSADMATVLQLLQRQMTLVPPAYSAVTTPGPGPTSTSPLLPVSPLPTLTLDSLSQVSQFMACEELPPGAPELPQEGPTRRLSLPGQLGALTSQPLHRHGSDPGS
Sequence of Cytochrome P450 2C9 (P11712 whole entry): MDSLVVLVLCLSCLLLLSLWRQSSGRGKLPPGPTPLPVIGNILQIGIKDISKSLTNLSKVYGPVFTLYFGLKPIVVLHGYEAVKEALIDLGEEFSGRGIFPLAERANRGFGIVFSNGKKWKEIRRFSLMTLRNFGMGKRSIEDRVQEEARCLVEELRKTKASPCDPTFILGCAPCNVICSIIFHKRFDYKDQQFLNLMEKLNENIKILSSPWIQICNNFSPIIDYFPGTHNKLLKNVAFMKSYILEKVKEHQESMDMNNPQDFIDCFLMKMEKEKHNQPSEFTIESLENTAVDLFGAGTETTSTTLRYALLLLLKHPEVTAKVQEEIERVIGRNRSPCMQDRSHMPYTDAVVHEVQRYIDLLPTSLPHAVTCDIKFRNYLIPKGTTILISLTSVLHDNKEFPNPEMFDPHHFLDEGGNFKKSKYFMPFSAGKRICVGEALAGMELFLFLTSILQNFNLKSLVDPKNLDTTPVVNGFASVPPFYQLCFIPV

Cc1nnc(C(C)C)n1[C@@H]1C[C@H]2CC[C@@H](C1)N2CC[C@H](NC(=O)C1CC(F)(F)C1)c1cccs1
IC50 [1]: 2.6 nM

Cc1nnc(C(C)C)n1[C@@H]1C[C@H]2CC[C@@H](C1)N2CC[C@H](NC(=O)C1CCCCC1)c1cccs1
selectivity ratio [2]: 529
selectivity ratio [3]: 44000
IC50 [4]: > 25000 nM
IC50 [5]: 21700 nM
IC50 [6]: 12300 nM
selectivity ratio [7]: 27000
AUC(0-inf) [8]: 1510 ng·h/mL
IC50 [9]: 504 nM
CC50 at 48 h [10]: > 200000 nM
AUC(0-inf) [11]: 5110 ng·h/mL
IC50 [12]: 15100 nM
Cmax [13]: 4320 ng/mL
bioavailability [14]: 14.8%
Tmax [15]: 15 min
Tmax [16]: 15 min
selectivity ratio [17]: 7800
IC50 [18]: 2060 nM
IC50 [19]: 11.1 nM
Cmax [20]: 631 ng/mL
IC50 [21]: 524 nM
selectivity ratio [22]: 509
IC50 [23]: 464 nM
IC50 [24]: 43.7 nM
IC50 [25]: > 25000 nM
IC50 [1]: 2.3 nM
MRT [26]: 48 min
half-life [27]: 18.6 min
IC50 [28]: 12.5 nM
IC50 [29]: 8.2 nM
half-life [30]: 69.6 min
clearance [31]: 32.7 mL/min/kg
selectivity ratio [32]: > 18000
MRT [33]: 126 min
selectivity ratio [34]: 575
IC50 [35]: > 25000 nM

Cc1ccc([C@H](CCN2[C@@H]3CC[C@H]2C[C@H](n2c(C)nnc2C(C)C)C3)NC(=O)c2ccccc2)s1
IC50 [1]: 51.7 nM

Cc1nnc(C(C)C)n1[C@@H]1C[C@H]2CC[C@@H](C1)N2CC[C@H](NC(=O)C1CC(=O)N(C)C1)c1cccs1 (some centres undefined)
IC50 [1]: 5.2 nM

Cc1nnc(C(C)C)n1[C@@H]1C[C@H]2CC[C@@H](C1)N2CC[C@H](NC(=O)C1CCC(F)(F)CC1)c1ccc(F)nc1
IC50 [1]: 252 nM

Cc1nnc(C(C)C)n1[C@@H]1C[C@H]2CC[C@@H](C1)N2CC[C@H](NC(=O)C1CCC(F)(F)CC1)c1ccc(F)s1
CC50 at 48 h [10]: > 200000 nM
IC50 [19]: 520 nM
IC50 [1]: 15.8 nM
selectivity ratio [32]: > 385

Cc1nnc(C(C)C)n1[C@@H]1C[C@H]2CC[C@@H](C1)N2CC[C@H](NC(=O)C1CCC(F)(F)CC1)c1ccc(Cl)s1
IC50 [1]: 12 nM

Cc1csc([C@H](CCN2[C@@H]3CC[C@H]2C[C@H](n2c(C)nnc2C(C)C)C3)NC(=O)C2CCC(F)(F)CC2)c1
IC50 [1]: 6.8 nM

Cc1nnc(C(C)C)n1[C@@H]1C[C@H]2CC[C@@H](C1)N2CC[C@H](NC(=O)[C@@H]1CCC(=O)N1)c1cccs1
IC50 [1]: 20.6 nM

Cc1ccc([C@H](CCN2[C@@H]3CC[C@H]2C[C@H](n2c(C)nnc2C(C)C)C3)NC(=O)Cc2ccc(F)cc2)s1
IC50 [1]: 33 nM

COc1ccc([C@H](CCN2[C@@H]3CC[C@H]2C[C@H](n2c(C)nnc2C(C)C)C3)NC(=O)C2CCC(F)(F)CC2)s1
IC50 [1]: 6.8 nM

Cc1nnc(C(C)C)n1[C@@H]1C[C@H]2CC[C@@H](C1)N2CC[C@H](NC(=O)C1CCC(F)(F)C1)c1cccs1 (some centres undefined)
IC50 [1]: 2.3 nM

Cc1nnc(C(C)C)n1[C@@H]1C[C@H]2CC[C@@H](C1)N2CC[C@H](NC(=O)C1CCC(F)CC1)c1cccs1 (some centres undefined)
IC50 [1]: 3 nM

Cc1nnc(C(C)C)n1[C@@H]1C[C@H]2CC[C@@H](C1)N2CC[C@H](NC(=O)C1CCC(=O)C1)c1cccs1 (some centres undefined)
IC50 [1]: 2.9 nM

Cc1ccc([C@H](CCN2[C@@H]3CC[C@H]2C[C@H](n2c(C(C)C)nnc2C(F)(F)F)C3)NC(=O)C2CCC(F)(F)CC2)s1
IC50 [1]: 4 nM

Cc1cscc1[C@H](CCN1[C@@H]2CC[C@H]1C[C@H](n1c(C)nnc1C(C)C)C2)NC(=O)C1CCC(F)(F)CC1
IC50 [1]: 8.1 nM

O=C(N[C@@H](CCN1[C@@H]2CC[C@H]1C[C@H](n1c(C3CC3)nnc1C(F)(F)F)C2)c1ccsc1)C1CCC(F)(F)CC1
IC50 [1]: 2.9 nM

Cc1ccc([C@H](CCN2[C@@H]3CC[C@H]2C[C@H](n2c(C)nnc2C(C)C)C3)NC(=O)C2CCCC2)s1
IC50 [1]: 2.6 nM

Cc1nnc(C2CC2)n1[C@@H]1C[C@H]2CC[C@@H](C1)N2CC[C@H](NC(=O)C1CCC(F)(F)CC1)c1cccs1
IC50 [1]: 2.9 nM

Cc1nnc(C(C)C)n1[C@@H]1C[C@H]2CC[C@@H](C1)N2CC[C@H](NC(=O)C1CCC(F)(F)CC1)c1csc2ccccc12
CC50 at 48 h [10]: 96100 nM
IC50 [19]: 810 nM
IC50 [1]: 9.7 nM
selectivity ratio [32]: 119

Cc1nnc(C2CC2)n1[C@@H]1C[C@H]2CC[C@@H](C1)N2CC[C@H](NC(=O)C1CCC(F)(F)CC1)c1ccsc1
IC50 [1]: 2.6 nM

Cc1nnc(C(C)C)n1[C@@H]1C[C@H]2CC[C@@H](C1)N2CC[C@H](NC(=O)C(C)(C)C(F)(F)F)c1cccs1
IC50 [1]: 5.4 nM

Cc1nnc(C(C)C)n1[C@@H]1C[C@H]2CC[C@@H](C1)N2CC[C@H](NC(=O)C1CCC(F)(F)CC1)c1cscn1
IC50 [1]: 27.1 nM

CC(C)c1nnc(C(F)(F)F)n1[C@@H]1C[C@H]2CC[C@@H](C1)N2CC[C@H](NC(=O)C1CCC(F)(F)CC1)c1cccs1
IC50 [1]: 4.7 nM

CCc1nnc(C)n1[C@@H]1C[C@H]2CC[C@@H](C1)N2CC[C@H](NC(=O)C1CCC(F)(F)CC1)c1ccsc1
IC50 [1]: 2.8 nM

Cc1nnc(C(C)C)n1[C@@H]1C[C@H]2CC[C@@H](C1)N2CC[C@H](NC(=O)C1CCC(F)(F)CC1)c1cccnc1
CC50 at 48 h [10]: > 100000 nM
IC50 [19]: 1520 nM
IC50 [1]: 82.6 nM
selectivity ratio [32]: > 65.8
